Drawing on PubChem BioAssay AID463203 (Broad Institute, 2010), this text covers AC50 for 93 compounds.

Structures are written as SMILES. The source made the active and inactive calls.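 Rule for the calls: active = more than half of replicate measurements showing over 20% loss of kinase signal relative to plate controls; inconclusive = some but at most half of replicates over 20% loss; inactive = no replicate over 20% signal loss.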 Some results are limits rather than exact numbers.

A word on the AC50: it is the concentration giving half of the maximal activity seen.

The target of the assay is Glycogen synthase kinase-3 alpha (Homo sapiens) (UniProt P49840). The assay can be described thus: concentration-response blocking of human GSK3A – biochemical, luminescence, cell-free homogeneous, retest, dose response (AID 463203). The following applies: GSK-3 alpha enzyme, ADP-Glo luminescence, 60 min. In general terms: ADP-Glo first removes unused ATP, then detects ADP through luciferase.
Glycogen synthase kinase-3 alpha (Homo sapiens), sequence (P49840 whole entry, looked up): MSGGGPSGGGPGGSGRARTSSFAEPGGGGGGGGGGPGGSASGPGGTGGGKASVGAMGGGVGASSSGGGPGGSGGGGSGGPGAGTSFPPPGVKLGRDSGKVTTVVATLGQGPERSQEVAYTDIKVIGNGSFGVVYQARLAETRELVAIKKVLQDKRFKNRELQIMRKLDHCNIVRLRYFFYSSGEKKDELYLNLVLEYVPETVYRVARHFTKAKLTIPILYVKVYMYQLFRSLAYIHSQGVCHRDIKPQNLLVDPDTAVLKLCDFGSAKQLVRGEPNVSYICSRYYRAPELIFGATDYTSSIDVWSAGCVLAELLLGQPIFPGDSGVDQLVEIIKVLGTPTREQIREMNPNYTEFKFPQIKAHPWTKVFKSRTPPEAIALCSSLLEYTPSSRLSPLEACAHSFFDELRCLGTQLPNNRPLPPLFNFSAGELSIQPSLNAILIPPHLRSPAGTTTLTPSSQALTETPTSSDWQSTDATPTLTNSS

In the case of `O=C(NC(=S)Nc1cccc2c(O)cccc12)c1ccccc1[N+](=O)[O-]`, the AC50 is > 30 µM (inactive). The same measure for `Cc1ccsc1C1C2=C(CC(C)(C)CC2=O)Nc2ncnn21` (stereo not drawn): 11.3 µM; for `CCOC(=O)c1nnn(-c2nonc2N)c1-c1cccc2ccccc12`: 27.9 µM; for `Cc1ccc(CSc2nnc(SCC(=O)N/N=C/c3ccc(C(=O)O)cc3)s2)cc1`: > 30 µM (inactive). Turning to `O=[N+]([O-])c1ccc(O)c(/C=N/n2c(-c3ccccc3)n[nH]c2=S)c1`, the AC50 is 26.3 µM. With `CC(C)=CCc1cc(-c2oc3cc(O)cc(O)c3c(=O)c2O)ccc1O` the figure was 9.4 µM; with `O=C(COc1cccc2cccnc12)N/N=C/c1ccccc1O`, > 30 µM (inactive). `CC1=C(C(=O)OCc2ccc3c(c2)OCO3)C(c2cccc([N+](=O)[O-])c2)NC(=O)N1` (stereo not drawn): the AC50 was 3.28 µM. The same measure for `Cc1cccc(NC(=O)c2sc3nc4c(c(-c5cccs5)c3c2N)CN(C)CC4)c1`: > 30 µM (inactive); for `Cc1cc(C(C#N)c2ccccc2)n2ncnc2n1` (stereo not drawn): 3.35 µM. The same measure for `COc1ccc(C(=O)Nc2nc(C)c(C)s2)cc1OC`: > 30 µM (inactive). With `Oc1[nH]c2ccc(Br)cc2c1N=Nc1nn[nH]n1` the figure was 23.3 µM; with `Clc1cncc(Cl)c1N/N=C/c1ccncc1`, > 30 µM (inactive); with `CN(Cc1ccccc1)c1ncnc(N)c1[N+](=O)[O-]`, 18.8 µM. Consider `S=C(NCc1ccc2c(c1)OCO2)NCc1ccc2c(c1)OCO2`, for which the AC50 is 25.5 µM.

`O=C(CSc1ccc2nnc(-c3ccc(F)cc3)n2n1)N1CCCc2ccccc21`: the AC50 is 0.98 µM. With `C[C@H](CO)N1C[C@H](C)[C@@H](CN(C)S(=O)(=O)c2ccccc2)Oc2c(NS(=O)(=O)c3ccc(F)cc3)cccc2C1=O` the figure was > 30 µM (inactive); with `COc1ccc(Nc2nc(N)nc(COc3ccc(OC)cc3)n2)cc1`, > 30 µM (inactive). The same measure for `CCC(=NCc1cccnc1)c1c(O)n(C2CCCCC2)c(=O)[nH]c1=O`: > 30 µM (inactive); for `Cc1cccc(C)c1OCC(=O)Nc1ccc2c(c1)C(=O)NC2=O`: 22.5 µM; for `COC(=O)[C@@H](NC(=O)NCc1ccccc1Cl)C(C)C`: > 30 µM (inactive).

Turning to `CC1(C)Cc2c(sc3c2C2=NCCN2C=N3)CS1`, the AC50 is > 30 µM (inactive).

In the case of `COc1ccc(/C=C2\Oc3cc(OCC(=O)N4CC(O)C[C@H]4C(=O)O)ccc3C2=O)cc1OC` (stereo partly drawn), the AC50 is > 30 µM (inactive). Consider `COc1cc(O)c(NC(C)=O)c2nonc12`, for which the AC50 is > 30 µM (inactive). With `COc1ccc(-c2cc(C(F)(F)F)nc(SCC(=O)NCc3ccco3)n2)cc1OC` the figure was > 30 µM (inactive); with `CCCCOC(=O)C1=C(C)Nc2ncnn2C1c1ccc(OC)c(OC)c1` (stereo not drawn), > 30 µM (inactive). The same measure for `O=C(c1cccnc1NCc1ccccc1)N1CCOCC1`: > 30 µM (inactive). The same measure for `CC(C)(C)NC(=O)/C(=C\C=C\c1ccccc1)NC(=O)c1ccc([N+](=O)[O-])cc1`: > 30 µM (inactive); for `O=[N+]([O-])c1ccc(N/N=C/c2cn(Cc3ccc(F)cc3)c3ccccc23)nc1`: > 30 µM (inactive); for `Cc1nc(SCC(=O)N(CC(C)C)C2CCS(=O)(=O)C2)c2ccccc2n1` (stereo not drawn): > 30 µM (inactive). Consider `Cc1ccc(S(=O)(=O)N2CCN(CC(=O)N/N=C\c3ccccn3)CC2)cc1`, for which the AC50 is > 30 µM (inactive). With `Cc1ccc(Sc2ccc(NC(=O)CCl)cc2)c(C)c1` the figure was > 30 µM (inactive); with `CNS(=O)(=O)c1cccc(C(=O)OCC(=O)Nc2ccc(Cl)cn2)c1`, 6.77 µM. With `Cc1csc(NC(=O)C2CC(=O)N(c3ccc(C)c(C)c3)C2)n1` (stereo not drawn) the figure was > 30 µM (inactive); with `COc1ccc(C(=O)NNC(=O)c2ccccn2)cc1`, 11.8 µM. With `S=C(NCc1ccccc1)Nc1cccc2cnccc12` the figure was > 30 µM (inactive); with `COc1ccc(-n2c(Cc3cccn3C)nnc2SCC(=O)Nc2ccc(F)cc2)cc1`, > 30 µM (inactive).

`CCCOc1cccc(-c2nnc(N)s2)c1`: the AC50 was > 30 µM (inactive). Take `CCOc1ccc2[nH]cc(S(=O)(=O)c3ccc(C)cc3)c(=O)c2c1`: the AC50 is > 30 µM (inactive). The same measure for `Cc1ccc(N=C2NC(=O)/C(=C\c3ccc(C)s3)S2)cc1`: > 30 µM (inactive); for `CCOC(=O)c1sc(NC(=O)CSc2ncn[nH]2)c(C#N)c1C`: > 30 µM (inactive). The same measure for `Cc1ccc(NC(=O)CSCc2ccco2)cc1`: > 30 µM (inactive). The same measure for `COc1ccc(COC(=O)C2=C(C)NC(=O)NC2c2ccc(F)cc2)cc1` (stereo not drawn): > 30 µM (inactive); for `COc1cccc(-c2cc(C(=O)N3CCN(c4ccccc4OC)CC3)no2)c1`: > 30 µM (inactive); for `Nc1ncnc2c1ncn2[C@H]1C[C@H](O)[C@@H](CO)O1`: > 30 µM (inactive).

Take `CCOc1cc(C(c2c(C)[nH][nH]c2=O)c2c(C)[nH][nH]c2=O)ccc1O`: the AC50 is > 30 µM (inactive).

Take `O=C(NCCCn1ccnc1)C(F)(F)C(F)(F)C(=O)NCCCn1ccnc1`: the AC50 is > 30 µM (inactive). The same measure for `Cc1cnn(C(=O)c2ccccc2Br)c1`: > 30 µM (inactive); for `CCc1c(C)c(C#N)c2nc3ccccc3n2c1NC`: > 30 µM (inactive); for `CCn1c(=O)[nH]c(=O)c2c(N)c(C(=O)c3ccccc3OC)sc21`: 16.8 µM. The same measure for `Cc1cc(-c2ccccc2)c2c3c(c(-c4ccccc4)n2n1)c(=O)n(C)c(=O)n3C`: > 30 µM (inactive); for `Cc1cccc(-c2nnc3n2N=C(c2ccc(Br)cc2)CS3)c1`: > 30 µM (inactive); for `Cc1ccsc1C(=O)OCC(=O)N1C(C)CCCC1C` (stereo not drawn): > 30 µM (inactive). With `COc1ccc(-c2cc(=O)c3ccccc3o2)cc1` the figure was > 30 µM (inactive); with `O=C(c1ccc(Cn2cnnn2)cc1)N1CCCC(Nc2ccc(F)cc2)C1` (stereo not drawn), 16.1 µM; with `O=C(CCc1nnc(-c2ccc3c(c2)OCO3)o1)N1CCC(c2ccc(F)cc2)C1` (stereo not drawn), 10 µM. For the compound `CC(C)N=C(NC#N)SCc1ccccc1F`, the AC50 was > 30 µM (inactive). The same measure for `CCCC(NS(=O)(=O)c1ccc(OC)cc1)C(=O)O` (stereo not drawn): > 30 µM (inactive); for `C(=N\Nc1ncnc2sc3c(c12)CCC3)/c1ccncc1`: 5.85 µM; for `CCN=C1S/C(=C/c2ccc(-c3ccc(Cl)cc3C(=O)O)o2)C(=O)N1CC`: 4.3 µM. The same measure for `CCCCn1c(SCC(=O)Nc2sc3c(c2C(N)=O)CCC3)nnc1-c1ccccc1`: > 30 µM (inactive).

Regarding `Cc1ccc(C(=O)Nc2cccc(-c3cnc4ccccc4n3)c2)cc1`, the AC50 was > 30 µM (inactive). The same measure for `CCOc1cccc(-c2c(C(=O)N/N=C(\C)c3ccccn3)nnn2-c2nonc2N)c1`: 2.56 µM; for `CCCn1c2ccccc2c2nc3ccccc3nc21`: > 30 µM (inactive); for `Cc1nn2cc(-c3ccccc3)nc2[nH]c1=O`: > 30 µM (inactive).

As for `O=C(N/N=C/c1cccnc1)c1cc2c(ccc3ccccc32)o1`, the AC50 was > 30 µM (inactive). As for `COc1cccc(C2CC(=O)Nc3cc(OC)c(OC)c(OC)c32)c1OC` (stereo not drawn), the AC50 was > 30 µM (inactive).

As to `CN1CCC(=NNC(=O)C(=O)NC2CCCC2)CC1`, the AC50 was > 30 µM (inactive). For `COC(=O)c1c(NC(=O)CN2C(=O)NC3(CCC(C)CC3)C2=O)sc2c1CCC2` (stereo not drawn), the AC50 is > 30 µM (inactive).

For `O=C(Nc1c(C(=O)C2CC2)oc2ccccc12)c1ccc(Cl)cc1`, the AC50 is > 30 µM (inactive). With `O=C(CCN1CCOCC1)Nc1cccc(Br)c1` the figure was > 30 µM (inactive); with `CN(C)S(=O)(=O)c1cccc(NC(=S)NN=C(Cc2ccccc2)Cc2ccccc2)c1`, > 30 µM (inactive); with `O=c1[nH]cccc1-c1nc2ccccc2[nH]1`, 4.92 µM. The same measure for `Cc1ccc(CSCCNC(=O)c2ccccc2)cc1`: > 30 µM (inactive); for `Clc1ccc(-c2nc3ncccn3c2Nc2ccc3c(c2)OCO3)cc1`: > 30 µM (inactive); for `CCCCOc1ccc(CSc2nc(C)[nH]c2[N+](=O)[O-])cc1[N+](=O)[O-]`: > 30 µM (inactive). With `CCOc1ccccc1NC(=O)Nc1ccc(Cl)cc1` the figure was > 30 µM (inactive); with `N#C/C(=N\Nc1ccccc1Cl)C(=O)c1ccccc1`, > 30 µM (inactive). Turning to `Cc1ccc(N2C(S)=C(C#N)C(=O)NC2c2ccco2)cc1` (stereo not drawn), the AC50 was > 30 µM (inactive).

`CCN1CCN(c2c(Cl)cccc2NC(=O)c2cccs2)CC1`: the AC50 was > 30 µM (inactive). With `O=C(COC(=O)c1cc(S(=O)(=O)N2CCOCC2)ccc1F)Nc1ccc(Cl)cn1` the figure was 2.72 µM. With `Nc1c(C(=O)O)ccc2c1C(=O)c1ccccc1C2=O` the figure was 7.87 µM; with `CC(C)(C)C(=O)NC(=S)Nc1sc2c(c1C(N)=O)CCC2`, > 30 µM (inactive). With `N#CCSc1nnc(-c2ccc3c(c2)OCO3)o1` the figure was 18.1 µM; with `CN1CCc2nc3sc(C(=O)NC4CC4)c(N)c3cc2C1`, > 30 µM (inactive). In the case of `O=C(CSc1nnc(-c2ccc(O)cc2)o1)Nc1ccccc1`, the AC50 is 16.3 µM. The same measure for `CC(=O)Nc1ccc(Nc2ncnc(N)c2[N+](=O)[O-])cc1`: > 30 µM (inactive); for `Cc1cc(NC(=O)CSc2nc3ccccc3c(=O)n2CCCC(=O)NCc2ccco2)n[nH]1`: > 30 µM (inactive). With `CCOCC(=O)Nc1nc2ccc(OCC)cc2s1` the figure was > 30 µM (inactive). The same measure for `Cc1cccc(NC(=O)CSc2nnc([C@@H](N)Cc3c[nH]c4ccccc34)o2)c1C`: > 30 µM (inactive); for `Nc1nc(-c2ccccc2)cc(-c2ccccc2O)n1`: 25.4 µM. Regarding `COc1ccc(N=Cc2c(O)[nH]c3ccccc23)cc1`, the AC50 was 19.8 µM. The same measure for `O=c1cc(-c2ccc(O)cc2)oc2c1ccc1ccccc12`: 1.33 µM.
